The source of these data is patent US20010053776A1, “Tricyclic pyridin-2-one analogue as a GABA receptor ligand” (priority 2000, published 2001).

Structures are written as SMILES.

In the case of `Cc1csc(-c2cc(-c3ccncc3)c3n(c2=O)CCCc2ccncc2-3)n1` [Example 1, 9-(4-Methylthiazol-2-yl)-11-(pyridin-4-yl)-6,7-dihydro-5H-2,7a-diazadibenzo[a,c]cyclohepten-8-one], the melting point is 300 to 302 °C.

The term melting point denotes the temperature, or range, at which the solid turns liquid.
